Experimental data reported in ChEMBL document CHEMBL4507325 (2021).

Columns and labels:
[1] = biological target: Aspartate aminotransferase, cytoplasmic (Homo sapiens, UniProt P17174); assay: Aspartate transaminase assay (GOT1)
[2] = biological target: 5-hydroxytryptamine receptor 1D (Homo sapiens) (UniProt P28221); settings: Compound concentration 10.0 uM
[3] = biological target: 5-hydroxytryptamine receptor 1E (Homo sapiens) (UniProt P28566); settings: Compound concentration 10.0 uM
[4] = biological target: 5-hydroxytryptamine receptor 2C (Homo sapiens) (UniProt P28335); settings: Compound concentration 10.0 uM
Chain of 5-hydroxytryptamine receptor 2C (Homo sapiens) (P28335 whole entry): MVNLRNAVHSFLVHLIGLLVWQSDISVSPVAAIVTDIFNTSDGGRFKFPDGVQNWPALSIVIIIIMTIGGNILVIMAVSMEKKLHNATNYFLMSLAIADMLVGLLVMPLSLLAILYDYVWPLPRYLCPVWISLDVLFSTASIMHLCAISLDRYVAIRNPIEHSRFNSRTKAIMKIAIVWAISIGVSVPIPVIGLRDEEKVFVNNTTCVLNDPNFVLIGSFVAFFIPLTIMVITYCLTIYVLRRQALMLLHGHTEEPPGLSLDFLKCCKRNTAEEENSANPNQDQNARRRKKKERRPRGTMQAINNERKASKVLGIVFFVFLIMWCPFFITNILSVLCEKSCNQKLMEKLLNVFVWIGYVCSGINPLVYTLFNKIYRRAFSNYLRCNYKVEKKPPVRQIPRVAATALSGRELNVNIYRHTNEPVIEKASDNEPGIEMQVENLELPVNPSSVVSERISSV

[5] = biological target: 5-hydroxytryptamine receptor 3A (Homo sapiens) (UniProt P46098); settings: Compound concentration 10.0 uM
[6] = biological target: 5-hydroxytryptamine receptor 6 (Homo sapiens) (UniProt P50406); settings: Compound concentration 10.0 uM
[7] = biological target: D(1A) dopamine receptor (Homo sapiens) (UniProt P21728); settings: Compound concentration 10.0 uM
Chain of D(1A) dopamine receptor (Homo sapiens) (P21728 whole entry): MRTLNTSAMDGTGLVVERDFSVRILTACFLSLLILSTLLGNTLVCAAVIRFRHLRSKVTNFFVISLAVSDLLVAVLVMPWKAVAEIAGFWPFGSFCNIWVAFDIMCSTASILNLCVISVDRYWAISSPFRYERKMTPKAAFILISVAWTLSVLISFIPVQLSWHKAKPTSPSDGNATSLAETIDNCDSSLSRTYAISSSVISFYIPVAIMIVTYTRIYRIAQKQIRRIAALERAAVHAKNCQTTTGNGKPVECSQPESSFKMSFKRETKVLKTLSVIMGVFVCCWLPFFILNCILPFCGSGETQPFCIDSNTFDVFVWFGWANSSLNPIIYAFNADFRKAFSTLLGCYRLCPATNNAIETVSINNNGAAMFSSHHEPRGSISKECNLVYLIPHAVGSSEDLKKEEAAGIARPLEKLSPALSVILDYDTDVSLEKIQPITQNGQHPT

[8] = biological target: D(3) dopamine receptor (Homo sapiens) (UniProt P35462); settings: Compound concentration 10.0 uM
[9] = biological target: D(4) dopamine receptor (Homo sapiens) (UniProt P21917); settings: Compound concentration 10.0 uM
[10] = biological target: D(1B) dopamine receptor (Homo sapiens) (UniProt P21918); settings: Compound concentration 10.0 uM
[11] = biological target: Mu-type opioid receptor (Homo sapiens) (UniProt P35372); settings: Compound concentration 10.0 uM
Chain of Mu-type opioid receptor (Homo sapiens) (P35372 whole entry): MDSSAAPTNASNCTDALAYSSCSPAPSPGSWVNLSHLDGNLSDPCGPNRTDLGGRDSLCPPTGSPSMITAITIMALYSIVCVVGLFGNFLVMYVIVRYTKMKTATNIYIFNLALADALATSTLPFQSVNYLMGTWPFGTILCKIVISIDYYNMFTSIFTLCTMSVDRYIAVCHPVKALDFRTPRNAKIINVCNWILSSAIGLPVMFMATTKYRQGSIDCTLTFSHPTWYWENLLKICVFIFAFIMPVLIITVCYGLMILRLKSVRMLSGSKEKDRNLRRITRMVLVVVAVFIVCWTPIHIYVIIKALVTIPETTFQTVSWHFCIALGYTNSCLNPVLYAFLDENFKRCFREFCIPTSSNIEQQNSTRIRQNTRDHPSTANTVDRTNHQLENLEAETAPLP

[12] = biological target: Delta-type opioid receptor (Homo sapiens) (UniProt P41143); settings: Compound concentration 10.0 uM
[13] = biological target: Kappa-type opioid receptor (Homo sapiens) (UniProt P41145); settings: Compound concentration 10.0 uM
Chain of Kappa-type opioid receptor (Homo sapiens) (P41145 whole entry): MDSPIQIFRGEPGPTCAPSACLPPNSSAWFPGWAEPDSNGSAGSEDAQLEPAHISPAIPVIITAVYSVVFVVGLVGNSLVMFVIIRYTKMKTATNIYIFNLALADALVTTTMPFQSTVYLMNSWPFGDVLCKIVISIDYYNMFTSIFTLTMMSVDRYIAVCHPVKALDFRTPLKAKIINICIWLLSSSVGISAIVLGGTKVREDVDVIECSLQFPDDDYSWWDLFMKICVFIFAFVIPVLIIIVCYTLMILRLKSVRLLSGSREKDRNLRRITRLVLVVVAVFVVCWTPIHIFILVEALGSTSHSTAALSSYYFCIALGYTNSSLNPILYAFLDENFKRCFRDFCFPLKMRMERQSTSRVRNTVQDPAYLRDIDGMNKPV

[14] = biological target: Histamine H4 receptor (Homo sapiens) (UniProt Q9H3N8); settings: Compound concentration 10.0 uM
Chain of Histamine H4 receptor (Homo sapiens) (Q9H3N8 whole entry): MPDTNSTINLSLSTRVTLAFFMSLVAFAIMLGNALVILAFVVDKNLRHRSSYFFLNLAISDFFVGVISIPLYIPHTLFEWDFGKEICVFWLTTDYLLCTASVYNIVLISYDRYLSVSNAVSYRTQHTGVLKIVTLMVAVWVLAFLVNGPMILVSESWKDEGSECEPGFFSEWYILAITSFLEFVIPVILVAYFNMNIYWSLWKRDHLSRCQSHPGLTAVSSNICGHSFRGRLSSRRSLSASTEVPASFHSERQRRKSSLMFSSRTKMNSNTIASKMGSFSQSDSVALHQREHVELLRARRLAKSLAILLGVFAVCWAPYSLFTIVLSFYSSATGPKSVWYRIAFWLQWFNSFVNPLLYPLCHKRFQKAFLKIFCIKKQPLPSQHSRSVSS

[15] = biological target: Alpha-2C adrenergic receptor (Homo sapiens) (UniProt P18825); settings: Compound concentration 10.0 uM
Chain of Alpha-2C adrenergic receptor (Homo sapiens) (P18825 whole entry): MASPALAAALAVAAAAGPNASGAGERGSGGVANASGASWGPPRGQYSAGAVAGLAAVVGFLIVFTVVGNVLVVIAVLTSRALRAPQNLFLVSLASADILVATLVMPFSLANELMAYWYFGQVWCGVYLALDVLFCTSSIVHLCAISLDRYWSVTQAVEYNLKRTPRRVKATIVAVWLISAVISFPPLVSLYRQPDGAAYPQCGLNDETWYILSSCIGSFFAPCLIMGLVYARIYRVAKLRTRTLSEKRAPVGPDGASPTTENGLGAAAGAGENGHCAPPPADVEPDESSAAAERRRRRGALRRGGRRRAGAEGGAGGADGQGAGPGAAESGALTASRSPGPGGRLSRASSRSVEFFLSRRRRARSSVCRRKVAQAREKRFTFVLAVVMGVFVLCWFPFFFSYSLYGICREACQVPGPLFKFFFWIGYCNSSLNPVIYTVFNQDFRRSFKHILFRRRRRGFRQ

[16] = biological target: Beta-2 adrenergic receptor (Homo sapiens) (UniProt P07550); settings: Compound concentration 10.0 uM
[17] = biological target: Muscarinic acetylcholine receptor M2 (Homo sapiens) (UniProt P08172); settings: Compound concentration 10.0 uM
[18] = biological target: Muscarinic acetylcholine receptor M4 (Homo sapiens) (UniProt P08173); settings: Compound concentration 10.0 uM
Chain of Muscarinic acetylcholine receptor M4 (Homo sapiens) (P08173 whole entry): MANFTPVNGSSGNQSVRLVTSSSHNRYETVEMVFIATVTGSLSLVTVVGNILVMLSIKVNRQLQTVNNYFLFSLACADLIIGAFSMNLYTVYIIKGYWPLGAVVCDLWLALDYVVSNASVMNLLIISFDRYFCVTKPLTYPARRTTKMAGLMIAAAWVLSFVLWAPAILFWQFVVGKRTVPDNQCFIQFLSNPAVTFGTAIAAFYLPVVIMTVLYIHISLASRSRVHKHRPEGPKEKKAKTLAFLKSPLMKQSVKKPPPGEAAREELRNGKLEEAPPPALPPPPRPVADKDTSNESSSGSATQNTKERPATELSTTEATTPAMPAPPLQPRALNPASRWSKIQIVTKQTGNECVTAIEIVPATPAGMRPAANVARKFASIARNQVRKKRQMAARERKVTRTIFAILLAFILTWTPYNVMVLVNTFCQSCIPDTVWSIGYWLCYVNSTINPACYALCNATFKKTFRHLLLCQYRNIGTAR

[19] = biological target: Muscarinic acetylcholine receptor M5 (Homo sapiens) (UniProt P08912); settings: Compound concentration 10.0 uM
[20] = biological target: Adenosine receptor A2a (Homo sapiens) (UniProt P29274); settings: Compound concentration 10.0 uM
[21] = biological target: Adenosine receptor A3 (Homo sapiens) (UniProt P0DMS8); settings: Compound concentration 10.0 uM
Chain of Adenosine receptor A3 (Homo sapiens) (P0DMS8 whole entry): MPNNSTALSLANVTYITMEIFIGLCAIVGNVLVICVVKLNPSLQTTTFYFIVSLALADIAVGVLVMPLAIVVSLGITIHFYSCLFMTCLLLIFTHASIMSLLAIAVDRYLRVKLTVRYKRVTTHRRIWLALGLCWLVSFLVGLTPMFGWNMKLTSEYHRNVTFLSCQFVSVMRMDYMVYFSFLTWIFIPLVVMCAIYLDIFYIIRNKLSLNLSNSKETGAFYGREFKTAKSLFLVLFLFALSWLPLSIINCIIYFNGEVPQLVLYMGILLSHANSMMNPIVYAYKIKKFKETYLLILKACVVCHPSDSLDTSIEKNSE

[22] = biological target: Beta-1 adrenergic receptor (Homo sapiens) (UniProt P08588); settings: Compound concentration 10.0 uM
[23] = biological target: B2 bradykinin receptor (Homo sapiens) (UniProt P30411); settings: Compound concentration 10.0 uM
Chain of B2 bradykinin receptor (Homo sapiens) (P30411 whole entry): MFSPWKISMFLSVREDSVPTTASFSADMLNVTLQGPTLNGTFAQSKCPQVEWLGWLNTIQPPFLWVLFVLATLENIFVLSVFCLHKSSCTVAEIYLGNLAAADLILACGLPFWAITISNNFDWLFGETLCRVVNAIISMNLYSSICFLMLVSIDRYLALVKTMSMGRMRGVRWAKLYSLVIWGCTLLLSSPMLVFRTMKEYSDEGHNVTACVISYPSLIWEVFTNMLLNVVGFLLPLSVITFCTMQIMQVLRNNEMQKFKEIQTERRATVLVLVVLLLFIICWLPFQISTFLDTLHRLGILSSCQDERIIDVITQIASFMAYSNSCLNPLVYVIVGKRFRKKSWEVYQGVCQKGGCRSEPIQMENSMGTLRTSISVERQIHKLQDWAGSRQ

[24] = biological target: Cannabinoid receptor 1 (Homo sapiens) (UniProt P21554); settings: Compound concentration 10.0 uM
[25] = biological target: D(1A) dopamine receptor (Homo sapiens) (UniProt P21728); settings: Compound concentration 10.0 uM; remark: listed apart in the source
[26] = biological target: Endothelin-1 receptor (Homo sapiens) (UniProt P25101); settings: Compound concentration 10.0 uM
[27] = biological target: Endothelin receptor type B (Homo sapiens) (UniProt P24530); settings: Compound concentration 10.0 uM
Chain of Endothelin receptor type B (Homo sapiens) (P24530 whole entry): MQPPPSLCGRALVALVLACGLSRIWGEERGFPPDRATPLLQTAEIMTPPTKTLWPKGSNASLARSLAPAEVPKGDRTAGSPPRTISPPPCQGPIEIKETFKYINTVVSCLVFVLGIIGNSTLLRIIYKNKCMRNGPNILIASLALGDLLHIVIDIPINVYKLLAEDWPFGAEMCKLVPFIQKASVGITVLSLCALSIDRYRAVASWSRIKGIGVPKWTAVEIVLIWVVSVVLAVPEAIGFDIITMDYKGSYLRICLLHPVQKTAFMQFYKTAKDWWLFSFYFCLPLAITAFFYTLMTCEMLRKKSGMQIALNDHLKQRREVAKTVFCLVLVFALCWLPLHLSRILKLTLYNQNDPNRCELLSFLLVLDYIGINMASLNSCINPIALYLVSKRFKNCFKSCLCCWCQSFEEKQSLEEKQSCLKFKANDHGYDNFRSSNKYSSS

[28] = biological target: GABA-A receptor; anion channel (Rattus norvegicus) (UniProt O09028+P15431+P18506+P18508+P19969+P20236+P23574+P23576+P28471+P28473+P30191+P62813+P63079+P63138+Q91ZM7+Q9ES14); settings: Compound concentration 10.0 uM
[29] = biological target: Histamine H2 receptor (Homo sapiens) (UniProt P25021); settings: Compound concentration 10.0 uM
[30] = biological target: Histamine H3 receptor (Homo sapiens) (UniProt Q9Y5N1); settings: Compound concentration 10.0 uM
Chain of Histamine H3 receptor (Homo sapiens) (Q9Y5N1 whole entry): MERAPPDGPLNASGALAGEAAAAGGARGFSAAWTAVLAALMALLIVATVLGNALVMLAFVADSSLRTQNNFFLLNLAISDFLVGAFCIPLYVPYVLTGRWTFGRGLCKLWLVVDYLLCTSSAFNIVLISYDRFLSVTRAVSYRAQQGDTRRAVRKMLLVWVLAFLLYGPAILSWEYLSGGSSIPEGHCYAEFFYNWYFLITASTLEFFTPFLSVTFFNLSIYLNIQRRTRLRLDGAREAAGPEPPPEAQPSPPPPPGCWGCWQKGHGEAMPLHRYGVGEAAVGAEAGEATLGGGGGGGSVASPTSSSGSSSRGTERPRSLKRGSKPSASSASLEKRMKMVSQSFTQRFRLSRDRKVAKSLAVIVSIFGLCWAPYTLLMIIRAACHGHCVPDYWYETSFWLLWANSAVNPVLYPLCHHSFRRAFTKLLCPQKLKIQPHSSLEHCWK

[31] = biological target: Kappa-type opioid receptor (Homo sapiens) (UniProt P41145); settings: Compound concentration 10.0 uM; remark: listed apart in the source
[32] = biological target: Mu-type opioid receptor (Homo sapiens) (UniProt P35372); settings: Compound concentration 10.0 uM; remark: listed apart in the source
Rattus norvegicus = species on record: Rattus norvegicus; settings: Compound concentration 10.0 uM
[33] = biological target: Sodium-dependent serotonin transporter (Homo sapiens) (UniProt P31645); settings: Compound concentration 10.0 uM
[34] = biological target: Alpha-2B adrenergic receptor (Homo sapiens) (UniProt P18089); settings: Compound concentration 10.0 uM
[35] = biological target: Beta-3 adrenergic receptor (Homo sapiens) (UniProt P13945); settings: Compound concentration 10.0 uM
[36] = biological target: Type-2 angiotensin II receptor (Homo sapiens) (UniProt P50052); settings: Compound concentration 10.0 uM
[37] = biological target: Glutamate receptor 2 (Homo sapiens) (UniProt P42262); settings: Rattus norvegicus; Compound concentration 10.0 uM
[38] = biological target: Insulin receptor (Homo sapiens) (UniProt P06213); settings: Rattus norvegicus; Compound concentration 10.0 uM
[39] = biological target: Muscarinic acetylcholine receptor M4 (Homo sapiens) (UniProt P08173); settings: Compound concentration 10.0 uM; remark: listed apart in the source
[40] = biological target: 5-hydroxytryptamine receptor 2C (Homo sapiens) (UniProt P28335); settings: Compound concentration 10.0 uM; remark: listed apart in the source
[41] = biological target: Alpha-2C adrenergic receptor (Homo sapiens) (UniProt P18825); settings: Compound concentration 10.0 uM; remark: listed apart in the source
[42] = biological target: 5-hydroxytryptamine receptor 2A (Homo sapiens) (UniProt P28223); settings: Compound concentration 10.0 uM
Oryctolagus cuniculus = species on record: Oryctolagus cuniculus; settings: Compound concentration 10.0 uM
[43] = biological target: Growth hormone secretagogue receptor type 1 (Homo sapiens) (UniProt Q92847); settings: Compound concentration 10.0 uM
[44] = biological target: Progesterone receptor (Homo sapiens) (UniProt P06401); settings: Compound concentration 10.0 uM
[45] = biological target: Equilibrative nucleoside transporter 1/2/3/4 (Homo sapiens) (UniProt Q99808+Q7RTT9+Q14542+Q9BZD2); settings: Compound concentration 10.0 uM

For `Cc1ccccc1Oc1cc(-n2c(=O)cc(C(F)(F)F)[nH]c2=O)c2ccccc2c1Cl` [BAY-069], the IC50 [1] was > 50 µM (not active), the inhibition [2] was 0.75% and the inhibition [3] was 4.31%. The inhibition [4] was 0.89%, the inhibition [5] was 20.3% and the inhibition [6] was 13%. The inhibition [7] was -0.83%, the inhibition [8] was 8.85% and the inhibition [9] was 9.05%. The inhibition [10] was 18.7%, the inhibition [11] was 20.9% and the inhibition [12] was 14.5%. The inhibition [13] was 37.5%, the inhibition [14] was -6.41% and the inhibition [15] was 10.8%. It also gave an inhibition [16] of 11.2%, an inhibition [17] of 39.2% and an inhibition [18] of -8.67%. For the same molecule, the inhibition [19] was -5.66%, the inhibition [20] was -6% and the inhibition [21] was -2%. For the same molecule, the inhibition [22] was 3%, the inhibition [23] was 1% and the inhibition [24] was 16%. It also gave an inhibition [25] of 7%, an inhibition [26] of -2% and an inhibition [27] of -9%. The inhibition [28] was 4%, the inhibition [29] was -2% and the inhibition [30] was 3%. It also gave an inhibition [31] of -7%, an inhibition [32] of 0% and an inhibition (Rattus norvegicus) of 46%. It also gave an inhibition [33] of 3%, an inhibition [34] of -2% and an inhibition [35] of 15%. It also gave an inhibition [36] of 6%, an inhibition [37] of 11% and an inhibition [38] of 15%. For the same molecule, the inhibition [39] was -5%, the inhibition [40] was 3% and the inhibition [41] was 6%. The inhibition [42] was 1%, the inhibition (Oryctolagus cuniculus) was 11% and the inhibition [43] was 1%. For the same molecule, the inhibition [44] was -4% and the inhibition [45] was 28%.
